Measurements published in patent US11117931B2, “Antimicrobial peptide derived from Hp1404 peptide and uses thereof” (priority 2017, dated 2021).
Where no end group is shown, it is not given here.

Columns and labels:
E. coli = assay: MIC, E. coli; format: cell-based, Escherichia coli; settings: E. coli (ATCC 25922), 18 hours at 37° C.
Source text: (§1) To compare the antimicrobial activity among the peptides produced by the method of Example 1, the inventors of the present invention measured the minimal growth inhibitory concentration (MIC), which is minimum concentration of the peptide showing no dissociation of bacterial cells.
(§2) Specifically, the bacterial strain described in the following Table 2 was purchased and cultured to a mid-log phase in each medium with a composition suitable for each strain. Then, after dilution to bacterial cell concentration of 2×10^4 cells/100 μl, the cells were inoculated to a microtiter plate (NUNC, USA). Thereafter, Hp1404-T1, Hp1404-T1a, Hp1404-T1b, Hp1404-T1c, Hp1404-T1d or Hp1404-T1e peptide which has been synthesized in Example 1 above was subjected to serial dilution, ½ times for each, with BSA (bovine serum albumin) solution in a 96-well plate. After adding the cells to a plate, the cells were cultured for 18 hours at 37° C. By using a microtiter plate reader (Merck Elisa reader, Germany), the absorbance was measured at a wavelength of 600 nm to determine the MIC value of each bacterial strain. As a control group, Hp1404 as a mother peptide was used.

S. aureus = assay: MIC, S. aureus; format: cell-based, Staphylococcus aureus; settings: S. aureus (ATCC 25923), 18 hours at 37° C.
Source text: as §1, §2

[1] = system: lipopolysaccharide (LPS) isolated from P. aeruginosa; assay: Binding ability between lipopolysaccharide (LPS) and peptide; settings: peptide at 1×MIC
Procedure: By using the peptides prepared by the method of Example 1, binding to lipopolysaccharide (LPS), which is a constitutional component of a cell wall of Gram-negative bacteria, was examined. LPS used in the present invention was isolated from P. aeruginosa. Lipopolysacchride (0 to 100 μg/ml) was diluted with 10 mM sodium phosphate buffer (pH 7.2), reacted with each peptide at a concentration of 1× or 2×MIC, and then cultured with the bacteria at 2×10^5 CFU/ml. By measuring the absorbance at 600 nm, the binding ability to the peptide was determined. Additionally, after reacting 0.1% […] with the peptide (40 μM) in an incubator, the secondary structure was examined by circular dichroism (CD) spectroscopy.

[2] = system: outer membrane of P. aeruginosa; assay: Outer membrane effect (NPN fluorescence); format: cell-based; settings: peptide at 1×, 2× or 4×MIC
Procedure: By using the peptides prepared by the method of Example 1, effect of the peptide on the outer membrane and inner membrane of bacteria was examined. […] However, once the hydrophobic part is exposed as a result of damage occurring in cell wall, NPN emits fluorescence. After culturing each strain in TSB and NB medium, the strain was adjusted such that it has OD600 value of 0.2 in 5 mM HEPES buffer solution. After allowing the reaction to occur between 10 μM NPN dissolved in 95% ethanol and the bacteria by adding them in a 96-well black plate, the peptide at a concentration of 1×, 2× or 4×MIC and 0.1% Triton X-100 were further added, and then the fluorescence was measured.

[3] = system: S. aureus or P. aeruginosa membrane; assay: Flow cytometry with propidium iodide; format: cell-based; settings: 2×MIC, 1 hour at 37° C.
Procedure: Specifically, S. aureus or P. aeruginosa was treated for 1 hour at 37° C. with the mother peptide Hp1404, or Hp1404-T1c, Hp1404-T1d or Hp1404-T1e peptide (at concentration of 2×MIC). After that, the supernatant was removed by centrifuge (10,000 rpm) and stained with propidium iodide (PI, concentration of 10 μg/ml) for 30 minutes at 4° C. Thereafter, unbound propidium iodide was removed by centrifuge, and the problem of cell aggregation phenomenon was solved by adding physiological saline (PBS) in an amount of 1 ml.

plasmid DNA (pRSETB) = assay: Binding between antimicrobial peptide and DNA (gel electrophoresis); settings: peptide/DNA ratio 0.25:1 to 4:1, 10 minutes at 37° C.
Procedure: To figure out the working mechanism of the synthetic peptides of the present invention for showing the antimicrobial activity, electrophoresis was carried out to examine the possible binding of synthetic peptides, i.e., Hp1404, […], Hp1404-T1d and Hp1404-T1e, to DNA as an internal material of bacteria.
Specifically, after reacting the plasmid DNA (pRSETB, 260 ng) with the peptide at different ratio (i.e., peptide/DNA ratio is as follows for lane number 1 to lane number 8: DNA only, 0.25:1, 0.5:1, 1:1, 1.5:1, 2:1, 3:1, and 4:1. respectively) for 10 minutes at 37° C., they were subjected to electrophoresis using 1% agarose gel followed by ethidium bromide (EtBr) staining and UV visualization.

[4] = system: Pseudomonas aeruginosa strain 1034; assay: In vivo antimicrobial activity, infected skin wound; parameters: species or system BALB/c mouse; number of colonies from skin tissues: reference not given here; settings: intracutaneous
Procedure: By using Hp1404-T1e found to have the most excellent antimicrobial activity among the peptides that are prepared by the method of Example 1, in vivo antimicrobial activity was measured. Specifically, among the Pseudomonas aeruginosa strains, strain 1034 was selected and tested. The strain was prepared by washing 3 times with PBS buffer. Ciprofloxacin antibiotic was used as a control group. A BALB/c mouse (6 week old) was shaved clean and a wound with pre-determined size was created thereon. Then, the wound site was injected intracutaneously with Pseudomonas aeruginosa strain 1034 ([…], 2×10^5 CFU/ml). After the bacterial infection, the peptide and antibiotic, each prepared at a concentration of 0.1 mg/ml and 0.2 mg/ml, respectively, were intracutaneously injected, and the observation was made everyday. On each day, the skin tissues were sampled and smeared on an NB solid medium. The smeared medium was incubated in an incubator for 18 hours, and the number of grown colonies was counted and expressed in %.

GILGKLWEGVKSIF-NH2 [Hp1404] was tested, and the Minimal inhibitory concentration (E. coli) was 6.25 µM, the Minimal inhibitory concentration (S. aureus) was 3.13 µM and the “binding to LPS, rank order” value [1] was “binding to LPS increases in order of Hp1404-T1e, Hp1404-T1d, Hp1404-T1c, and Hp1404”. The “NPN fluorescence (effect on outer membrane)” value [2] was “increases in treatment concentration-dependent manner”, the “propidium iodide fluorescence signal shift (membrane damage)” value [3] was “bacteria membrane was damaged” and the “binding to DNA” value (plasmid DNA (pRSETB)) was “did not bind to any DNA”.
ILKKLLKKVKKI-NH2 [Hp1404-T1e] was tested, and the Minimal inhibitory concentration (E. coli) was >25 µM, the Minimal inhibitory concentration (S. aureus) was 3.13 µM and the “binding to LPS, rank order” value [1] was “binding to LPS increases in order of Hp1404-T1e, Hp1404-T1d, Hp1404-T1c, and Hp1404”. For the same substance, the “propidium iodide fluorescence signal shift (membrane damage)” value [3] was “no such shift of fluorescence signal”, the “binding to DNA” value (plasmid DNA (pRSETB)) was “bind to DNA” and the wound healing ([4]; 0.1 mg/ml and 0.2 mg/ml, observed everyday) was “wound healing effect in peptide concentration-dependent manner”. For the same substance, the “number of colonies from skin tissues” value ([4]; Day 5, 0.1 mg/ml treatment condition) was 40% and the “number of colonies from skin tissues” value ([4]; Day 5, 0.2 mg/ml treatment condition) was 20%.
In the case of ILKKLLKKVKSI-NH2 [Hp1404-T1d], the Minimal inhibitory concentration (E. coli) is reported as >25 µM, the Minimal inhibitory concentration (S. aureus) is reported as 6.25 µM and the “binding to LPS, rank order” value [1] is reported as “binding to LPS increases in order of Hp1404-T1e, Hp1404-T1d, Hp1404-T1c, and Hp1404”. For the same substance, the “propidium iodide fluorescence signal shift (membrane damage)” value [3] was “no such shift of fluorescence signal” and the “binding to DNA” value (plasmid DNA (pRSETB)) was “bind to DNA”.
